The test concerns the target canine TRPM8 (Canis lupus familiaris, UniProt Q1A7N1). As to the kind of experiment: In Vitro Canine TRPM8 Functional Assay (Ca2+ fluorescence, icilin activation). It counts as cell-based. Particulars: for IC50: HEK293 cells stably expressing canine TRPM8, icilin activation, eight-point dose-response, read-out: IC50; for inhibition at 0.5 µM: compound at 0.5 μM, canine TRPM8, icilin activation, read-out: % Inh @ 0.5. As for the experimental part:
The functional activity of compounds of the formula (I) was determined by measuring changes in intracellular calcium concentration using a Ca^2+-sensitive fluorescent dye. The changes in fluorescent signal were monitored by a fluorescence plate reader, either a FLIPR™ (Molecular Devices) or FDSS (Hamamatsu).
At 24 hrs prior to assay, HEK293 cells stably expressing canine TRPM8 were seeded in culture medium in black wall, clear-base poly-D-lysine coated 384-well plates (BD Biosciences, NJ, USA) and grown overnight in 5% CO2 at 37° C. On assay day, growth media was removed and cells were loaded with Calcium 3 Dye (Molecular Devices) for 35 min at 37° C., under 5% CO2 and then for 25 min at room temperature and atmosphere. Subsequently, cells were tested for agonist-induced increases in intracellular Ca^2+ levels using FLIPR™ or FDSS. Cells were challenged with a compound of the Formula (I) (at varying concentrations) and intracellular Ca^2+ was measured for 5 min prior to the addition of icilin to all wells to achieve a final concentration that produces approximately an 80% maximal response. EC50 or IC50 values for compounds of the present invention were determined from eight-point dose-response studies. Curves were generated using the average of quadruplicate wells for each data point.

In US9434711B2 (Janssen Pharmaceutica, NV, priority 2007, dated 2016) one finds IC50 and inhibition data, which are given here for 30 compounds.

Chain of canine TRPM8 (Q1A7N1 1-1104): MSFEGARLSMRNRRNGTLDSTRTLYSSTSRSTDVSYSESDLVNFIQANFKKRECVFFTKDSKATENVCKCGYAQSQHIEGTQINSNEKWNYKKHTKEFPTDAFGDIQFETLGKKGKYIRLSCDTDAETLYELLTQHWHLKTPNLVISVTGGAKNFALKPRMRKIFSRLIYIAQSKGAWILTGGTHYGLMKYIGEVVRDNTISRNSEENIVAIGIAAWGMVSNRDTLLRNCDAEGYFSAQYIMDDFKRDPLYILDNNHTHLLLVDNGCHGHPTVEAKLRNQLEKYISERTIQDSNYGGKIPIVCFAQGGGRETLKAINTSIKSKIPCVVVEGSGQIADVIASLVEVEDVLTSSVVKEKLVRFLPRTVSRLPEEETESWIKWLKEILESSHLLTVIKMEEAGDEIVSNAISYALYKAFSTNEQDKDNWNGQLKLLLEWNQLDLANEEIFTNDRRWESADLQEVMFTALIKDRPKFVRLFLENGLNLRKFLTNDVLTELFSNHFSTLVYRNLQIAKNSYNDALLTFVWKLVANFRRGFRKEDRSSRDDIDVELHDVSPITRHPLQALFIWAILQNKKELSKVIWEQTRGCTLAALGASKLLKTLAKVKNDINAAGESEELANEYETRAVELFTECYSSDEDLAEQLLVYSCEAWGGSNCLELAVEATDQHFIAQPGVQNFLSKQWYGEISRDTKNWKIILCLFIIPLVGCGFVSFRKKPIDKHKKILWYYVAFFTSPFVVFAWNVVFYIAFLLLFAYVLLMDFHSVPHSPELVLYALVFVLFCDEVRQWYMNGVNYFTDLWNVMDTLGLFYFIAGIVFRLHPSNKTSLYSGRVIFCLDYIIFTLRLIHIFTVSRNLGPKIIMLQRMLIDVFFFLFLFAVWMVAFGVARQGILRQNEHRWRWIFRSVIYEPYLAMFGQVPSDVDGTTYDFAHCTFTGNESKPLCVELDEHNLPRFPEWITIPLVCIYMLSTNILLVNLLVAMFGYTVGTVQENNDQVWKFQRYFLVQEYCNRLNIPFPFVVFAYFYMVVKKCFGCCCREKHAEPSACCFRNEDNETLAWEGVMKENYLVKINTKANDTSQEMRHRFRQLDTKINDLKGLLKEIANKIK

With `O=S(=O)(c1ccccc1)N(Cc1ccc(F)c(F)c1)c1cc2ccccc2s1` [Compound 1, N-Benzo[b]thiophen-2-yl-N-(3,4-difluoro-benzyl)-benzenesulfonamide], the IC50 – broadly, the concentration that inhibits the measured activity by half – came to 24 nM and the inhibition at 0.5 µM amounted to 100%. For `O=S(=O)(c1ccccc1)N(Cc1cccc(F)c1)c1cc2ccccc2s1` [Compound 3, N-Benzo[b]thiophen-2-yl-N-(3-fluoro-benzyl)-benzenesulfonamide], the IC50 turned out to be 35 nM and the inhibition at 0.5 µM turned out to be 98%. In the same order, the values of `O=S(=O)(c1ccccc1)N(Cc1ccc(F)cc1)c1sc2ccccc2c1Cl` [Compound 4, N-(3-Chloro-benzo[b]thiophen-2-yl)-N-(4-fluoro-benzyl)-benzenesulfonamide] are 4 nM and 97%. For the compound `O=S(=O)(c1ccccc1)N(Cc1cccc2cccnc12)c1sc2ccccc2c1Cl` [Compound 5, N-(3-Chloro-benzo[b]thiophen-2-yl)-N-quinolin-8-ylmethyl-benzenesulfonamide], the IC50 turned out to be 63 nM and the inhibition at 0.5 µM came to 97%.

On to `O=S(=O)(c1ccccc1)N(Cc1ccc(OC(F)(F)F)cc1)c1sc2ccccc2c1Cl` [Compound 6, N-(3-Chloro-benzo[b]thiophen-2-yl)-N-(4-trifluoromethoxy-benzyl)-benzenesulfonamide], for which the half-maximal inhibitory concentration (IC50) is 11.3 nM and the inhibition at 0.5 µM worked out at 99%.

With `O=S(=O)(c1ccccc1)N(Cc1ccc(C(F)(F)F)cc1)c1sc2ccccc2c1Cl` [Compound 8, N-(3-Chloro-benzo[b]thiophen-2-yl)-N-(4-trifluoromethyl-benzyl)-benzenesulfonamide], the IC50 is 10 nM and the inhibition at 0.5 µM was 99%. Regarding `O=S(=O)(c1ccccn1)N(Cc1ccc(F)c(F)c1)c1cc2ccccc2s1` [Compound 9, N-(Benzo[b]thiophen-2-yl)-N-(3,4-difluoro-benzyl)-pyridine-2-sulfonamide], the IC50 came to 47 nM and the inhibition at 0.5 µM was 98%.

As to `Cc1c(N(Cc2cccc3cccnc23)S(=O)(=O)c2cn(C)cn2)sc2ccccc12` [Compound 10, N-(3-Methyl-benzo[b]thiophen-2-yl)-N-(quinolin-8-ylmethyl)-1-methyl-1H-imidazole-4-sulfonamide], the IC50 worked out at 229 nM and the inhibition at 0.5 µM is 89%. With `Cc1c(N(Cc2ccc(OC(F)(F)F)cc2)S(=O)(=O)c2cn(C)cn2)sc2ccccc12` [Compound 11, N-(3-Methyl-benzo[b]thiophen-2-yl)-N-(4-trifluoromethoxy-benzyl)-1-methyl-1H-imidazole-4-sulfonamide], the IC50 was 33 nM and the inhibition at 0.5 µM amounted to 97%. In the same order, the values of `Cc1c(N(Cc2ccc(F)c(F)c2)S(=O)(=O)c2cccnc2)sc2ccccc12` [Compound 12, N-(3,4-Difluoro-benzyl)-N-(3-methyl-benzo[b]thiophen-2-yl)-pyridine-3-sulfonamide] are 6 nM and 97%.

In the case of `Cc1c(N(Cc2ccc(OC(F)(F)F)cc2)S(=O)(=O)c2ccsc2)sc2ccccc12` [Compound 16, N-(3-Methyl-benzo[b]thiophen-2-yl)-N-(4-trifluoromethoxy-benzyl)-thiophene-3-sulfonamide], the half-maximal inhibitory concentration (IC50) was 6 nM and the inhibition at 0.5 µM was found to be 99%. The corresponding values for `Cc1c(N(Cc2cccc3cccnc23)S(=O)(=O)c2ccsc2)sc2ccccc12` [Compound 17, N-(3-Methyl-benzo[b]thiophen-2-yl)-N-(quinolin-8-ylmethyl)-thiophene-3-sulfonamide] are 22 nM and 97%. For `Cc1c(N(Cc2ccc(F)c(F)c2)S(=O)(=O)c2cc3ccccc3s2)sc2ccccc12` [Compound 18, N-(3,4-Difluoro-benzyl)-N-(3-methyl-benzo[b]thiophen-2-yl)-benzo[b]thiophene-2-sulfonamide], the IC50 stood at 81 nM and the inhibition at 0.5 µM stood at 94%. For `Cc1c(N(Cc2cccc3cccnc23)S(=O)(=O)c2cc3ccccc3s2)sc2ccccc12` [Compound 19, N-(3-Methyl-benzo[b]thiophen-2-yl)-N-(quinolin-8-ylmethyl)-benzo[b]thiophene-2-sulfonamide], the inhibition at 0.5 µM turned out to be 58%.

Consider `Cc1c(N(Cc2ccc(F)c(F)c2)S(=O)(=O)c2cccc3cccnc23)sc2ccccc12` [Compound 20, N-(3,4-Difluoro-benzyl)-N-(3-methyl-benzo[b]thiophen-2-yl)-quinoline-8-sulfonamide], for which the IC50 was determined as 6 nM and the inhibition at 0.5 µM is 98%. As for `Cc1c(N(Cc2ccc(OC(F)(F)F)cc2)S(=O)(=O)c2cccc3cccnc23)sc2ccccc12` [Compound 21, N-(3-Methyl-benzo[b]thiophen-2-yl)-N-(4-trifluoromethoxy-benzyl)-quinoline-8-sulfonamide], the IC50 is 15 nM and the inhibition at 0.5 µM was found to be 98%. As to `Cc1c(N(Cc2cccc3cccnc23)S(=O)(=O)c2cccc3cccnc23)sc2ccccc12` [Compound 22, N-(3-Methyl-benzo[b]thiophen-2-yl)-N-(quinolin-8-ylmethyl)-quinoline-8-sulfonamide], the 50% inhibitory concentration (IC50) came out at 32 nM and the inhibition at 0.5 µM was 98%.

As for `O=S(=O)(c1ccccc1)N(Cc1cccc(F)c1)c1sc2ccccc2c1Cl` [Compound 23, N-(3-Chloro-benzo[b]thiophen-2-yl)-N-(3-fluoro-benzyl)-benzenesulfonamide], the 50% inhibitory concentration (IC50) turned out to be 26 nM and the inhibition at 0.5 µM is 99%. For the compound `O=S(=O)(c1ccccc1)N(Cc1ccc(F)c(F)c1)c1sc2ccccc2c1Cl` [Compound 24, N-(3-Chloro-benzo[b]thiophen-2-yl)-N-(3,4-difluoro-benzyl)-benzenesulfonamide], the IC50 amounted to 8.8 nM and the inhibition at 0.5 µM is 100%. For the compound `COc1cccc(S(=O)(=O)N(Cc2ccc(F)c(F)c2)c2sc3ccccc3c2C)c1` [Compound 25, N-(3,4-Difluoro-benzyl)-N-(3-methyl-benzo[b]thiophen-2-yl)-3-methoxy-benzenesulfonamide], the IC50 was 21 nM and the inhibition at 0.5 µM is 99%.

With `COc1ccc(S(=O)(=O)N(Cc2ccc(F)c(F)c2)c2sc3ccccc3c2C)cc1` [Compound 26, N-(3,4-Difluoro-benzyl)-N-(3-methyl-benzo[b]thiophen-2-yl)-4-methoxy-benzenesulfonamide], the IC50 was 20 nM and the inhibition at 0.5 µM was determined as 98%. The corresponding values for `Cc1c(N(Cc2ccc(F)c(F)c2)S(=O)(=O)c2cccc3cnccc23)sc2ccccc12` [Compound 27, N-(3,4-Difluoro-benzyl)-N-(3-methyl-benzo[b]thiophen-2-yl)-isoquinoline-5-sulfonamide] are 20 nM and 99%. `Cc1c(N(Cc2ccc(OC(F)(F)F)cc2)S(=O)(=O)c2cccc3cnccc23)sc2ccccc12` [Compound 28, N-(3-Methyl-benzo[b]thiophen-2-yl)-N-(4-trifluoromethoxy-benzyl)-isoquinoline-5-sulfonamide]: the IC50 stood at 32 nM and the inhibition at 0.5 µM was 100%. In the case of `Cc1c(N(Cc2cccc3cccnc23)S(=O)(=O)c2cccc3cnccc23)sc2ccccc12` [Compound 29, N-(3-Methyl-benzo[b]thiophen-2-yl)-N-(quinolin-8-ylmethyl)-isoquinoline-5-sulfonamide], the IC50 amounted to 33 nM and the inhibition at 0.5 µM was 99%. In the case of `Cc1c(N(Cc2ccc(F)c(F)c2)S(=O)(=O)c2ccc3ncccc3c2)sc2ccccc12` [Compound 30, N-(3,4-Difluoro-benzyl)-N-(3-methyl-benzo[b]thiophen-2-yl)-quinoline-6-sulfonamide], the IC50 was 12 nM and the inhibition at 0.5 µM is 100%. Regarding `Cc1c(N(Cc2ccc(OC(F)(F)F)cc2)S(=O)(=O)c2ccc3ncccc3c2)sc2ccccc12` [Compound 31, N-(3-Methyl-benzo[b]thiophen-2-yl)-N-(4-trifluoromethoxy-benzyl)-quinoline-6-sulfonamide], the IC50 was determined as 22 nM and the inhibition at 0.5 µM is 100%. Regarding `Cc1c(N(Cc2cccc3cccnc23)S(=O)(=O)c2ccc3ncccc3c2)sc2ccccc12` [Compound 32, N-(3-Methyl-benzo[b]thiophen-2-yl)-N-(quinolin-8-ylmethyl)-quinoline-6-sulfonamide], the half-maximal inhibitory concentration (IC50) came out at 37 nM and the inhibition at 0.5 µM came to 100%. Consider `O=S(=O)(c1cccnc1)N(Cc1ccc(F)c(F)c1)c1cc2ccccc2s1` [Compound 33, N-(Benzo[b]thiophen-2-yl)-N-(3,4-difluoro-benzyl)-pyridine-3-sulfonamide], for which the concentration for half-maximal inhibition (IC50) was 57.4 nM and the inhibition at 0.5 µM is 100%. On to `CS(=O)(=O)N(Cc1ccc(F)c(F)c1)c1cc2ccccc2s1` [Compound 34, N-Benzo[b]thiophen-2-yl-N-(3,4-difluoro-benzyl)-methanesulfonamide], for which the half-maximal inhibitory concentration (IC50) came out at 184 nM and the inhibition at 0.5 µM came out at 98%. In the same order, the values of `CCS(=O)(=O)N(Cc1ccc(F)c(F)c1)c1cc2ccccc2s1` [Compound 35, N-(Benzo[b]thiophen-2-yl)-N-(3,4-difluoro-benzyl)-ethanesulfonamide] are 60.8 nM and 100%.
